The test system of the assay is PC12 inducible Htt-N63-148Q toxicity rescue. The assay is described as follows: protection against mutant Htt fragment cytotoxicity – PC12 cells, inducible expression, ROSShtt, dose response (AID 1590).

Results filed as inconclusive are left out.

The EC50 is the concentration that produces a half-maximal response.

Regarding `CN(C)[C@@H]1C(=O)C(C(N)=O)=C(O)[C@@]2(O)C(=O)C3=C(O)c4c(O)cccc4[C@@](C)(O)[C@H]3C[C@@H]12`, the EC50 is 100 nM.
With `N[C@H](C(=O)O)[C@@H]1CC(Cl)=NO1` the figure was 10000 nM.
The result for `COc1c(C)c2c(c(O)c1C/C=C(\C)CCC(=O)O)C(=O)OC2` reads 10000 nM; that for `O=C(O)C1CCCNC1` (stereo unspecified), 10000 nM; that for `CN(C)[C@@H]1C(=O)C(C(N)=O)=C(O)[C@@]2(O)C(=O)C3=C(O)c4c(O)ccc(Cl)c4[C@@H](O)[C@H]3C[C@@H]12`, 1000 nM.
The result for `CCN(Cc1ccncc1)C(=O)C(CO)c1ccccc1` (stereo unspecified) reads 10 nM; that for `C=C1c2cccc(O)c2C(O)=C2C(=O)[C@]3(O)C(O)=C(C(N)=O)C(=O)[C@@H](N(C)C)[C@@H]3[C@@H](O)[C@H]12`, 10 nM.
Turning to `CCCNCC(O)COc1ccccc1C(=O)CCc1ccccc1` (stereo unspecified), the EC50 is 10000 nM.
With `CC(C)NCC(O)c1ccc(O)c(O)c1` (stereo unspecified) the figure was 15000 nM.
With `CN(C)[C@@H]1C(=O)C(C(N)=O)=C(O)[C@@]2(O)C(=O)C3=C(O)c4c(O)cccc4[C@@](C)(O)[C@H]3[C@H](O)[C@@H]12` the figure was 1000 nM; with `C=C1c2c(Cl)ccc(O)c2C(O)=C2C(=O)[C@]3(O)C(O)=C(C(N)=O)C(=O)[C@@H](N(C)C)[C@@H]3[C@@H](O)[C@H]12`, 10 nM.

The values above are taken from PubChem BioAssay AID1590 (NINDS Approved Drug Screening Program, 2009).
